Measurements published in patent US12509444B2, “Compounds and methods for CD73 modulation and indications therefor” (Plexxikon Inc., priority 2019, dated 2025).

How the values were obtained:
[1] = target: T1, Human CD73 (amino acid residues 27-549) (Homo sapiens, UniProt P21589); test: CD73 enzymatic assay (luciferase-based indirect assay, CellTiter-Glo); assay type: biochemical; conditions: 0.4 nM CD73, 150 μM AMP, 1 hour at room temperature
T1 construct: Human CD73 (amino acid residues 27-549); His tag (N); made in house; host or cells: E. coli
T1 sequence (P21589 27-549): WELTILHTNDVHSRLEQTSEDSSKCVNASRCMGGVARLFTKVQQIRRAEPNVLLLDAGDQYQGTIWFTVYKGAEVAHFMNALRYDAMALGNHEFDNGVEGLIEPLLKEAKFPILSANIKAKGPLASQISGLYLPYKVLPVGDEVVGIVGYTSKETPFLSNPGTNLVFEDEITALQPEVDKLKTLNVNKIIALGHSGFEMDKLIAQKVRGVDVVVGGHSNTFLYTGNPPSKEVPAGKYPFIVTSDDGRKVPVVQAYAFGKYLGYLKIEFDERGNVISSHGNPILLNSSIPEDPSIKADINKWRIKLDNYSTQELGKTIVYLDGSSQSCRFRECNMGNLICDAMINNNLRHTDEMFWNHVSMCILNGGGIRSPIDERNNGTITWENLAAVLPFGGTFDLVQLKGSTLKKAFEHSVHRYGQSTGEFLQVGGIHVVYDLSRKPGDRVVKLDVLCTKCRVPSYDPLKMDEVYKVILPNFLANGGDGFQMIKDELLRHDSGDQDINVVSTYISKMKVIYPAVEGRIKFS
How it was run: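 His-tagged human CD73 (27-549) from E. coli, 0.4 nM, with 150 μM AMP in 50 mM HEPES pH 7.4, 0.01% Tween 20; 1 h at room temperature. AMP remaining read by CellTiter-Glo 2.0 luminescence with 1 μM final ATP after 30 min. IC50 from nonlinear regression of % inhibition.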

[2] = target: T2, human CD73 (Homo sapiens, UniProt P21589); test: Inhibitor activity against CD73 in cell based assay (CD73 expressing CHO-K1 cells); conditions: CHO-K1 cells expressing human CD73, 150 μM AMP, 4 hours of incubation; read-out: CHO-K1 CELL VARIANT: CD73 IC50
T2 construct: expressed in transfected cells
T2 sequence (P21589 27-549): T1 sequence (P21589 27-549)
How it was run: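 Stably transfected CHO-K1 cells expressing human CD73 (1×10^4/well) incubated 4 h with compound (8-point 1:3 titration, top 10 μM final, 0.2% DMSO) and 150 μM AMP. Residual AMP in supernatant measured by CellTiter-Glo luminescence with 1 μM ATP after 30 min at room temperature; IC50 by nonlinear regression of percent inhibition vs high/low controls.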

SMILES: N#CC1(NC(=O)O[C@@H]2CCN(c3cn[nH]c(=O)c3Cl)C2)CCCC1 [P-0361, (R)-1-(5-chloro-6-oxo-1,6-dihydropyridazin-4-yl)pyrrolidin-3-yl (1-cyanocyclopentyl)carbamate]
- IC50 [1]: 0.001 to 10 µM
- IC50 [2]: 0.001 to 10 µM

SMILES: O=C(N[C@H]1CCC[C@H]1O)O[C@@H]1CCN(c2cn[nH]c(=O)c2Cl)C1 [P-0455, (R)-1-(5-chloro-6-oxo-1,6-dihydropyridazin-4-yl)pyrrolidin-3-yl ((1S,2R)-2-hydroxycyclopentyl)carbamate]
- IC50 [1]: 0.001 to 10 µM
- IC50 [2]: 10 to 100 µM

SMILES: C[C@@H](O)C(=O)N1CCC(NC(=O)O[C@@H]2CCN(c3cn[nH]c(=O)c3Cl)C2)CC1 [P-0400, (R)-1-(5-chloro-6-oxo-1,6-dihydropyridazin-4-yl)pyrrolidin-3-yl (1-((R)-2-hydroxypropanoyl)piperidin-4-yl)carbamate]
- IC50 [1]: 0.001 to 10 µM
- IC50 [2]: 0.001 to 10 µM

SMILES: Cc1c(N2CC[C@@H](NC(=O)NC3CCCC3)C2)cnn(C(=O)NC2CCCC2)c1=O [P-0058, (R)-N-cyclopentyl-4-(3-(3-cyclopentylureido)pyrrolidin-1-yl)-5-methyl-6-oxopyridazine-1(6H)-carboxamide]
- IC50 [1]: 0.001 to 10 µM
- IC50 [2]: 10 to 100 µM

SMILES: COc1ccc(CC(=O)N2CCC(NC(=O)O[C@@H]3CCN(c4cn[nH]c(=O)c4Cl)C3)CC2)cc1 [P-0442, (R)-1-(5-chloro-6-oxo-1,6-dihydropyridazin-4-yl)pyrrolidin-3-yl (1-(2-(4-methoxyphenyl)acetyl)piperidin-4-yl)carbamate]
- IC50 [1]: 0.001 to 10 µM
- IC50 [2]: 0.001 to 10 µM

SMILES: N#Cc1c(N2CC[C@@H](OC(=O)NC3CCC(F)(F)CC3)C2)cnn(CCO)c1=O [P-0497, (R)-1-(5-cyano-1-(2-hydroxyethyl)-6-oxo-1,6-dihydropyridazin-4-yl)pyrrolidin-3-yl (4,4-difluorocyclohexyl)carbamate]
- IC50 [1]: 0.001 to 10 µM
- IC50 [2]: 0.001 to 10 µM

SMILES: O=C(NC1CCN(C(=O)c2ccccc2C(F)(F)F)CC1)O[C@@H]1CCN(c2cn[nH]c(=O)c2Cl)C1 [P-0403, (R)-1-(5-chloro-6-oxo-1,6-dihydropyridazin-4-yl)pyrrolidin-3-yl (1-(2-(trifluoromethyl)benzoyl)piperidin-4-yl)carbamate]
- IC50 [1]: 0.001 to 10 µM
- IC50 [2]: 0.001 to 10 µM

SMILES: N#Cc1c(N2CC[C@@H](OC(=O)NC3CCCC3)C2)cnn(CCO)c1=O [P-0496, (R)-1-(5-cyano-1-(2-hydroxyethyl)-6-oxo-1,6-dihydropyridazin-4-yl)pyrrolidin-3-yl cyclopentylcarbamate]
- IC50 [1]: 0.001 to 10 µM
- IC50 [2]: 0.001 to 10 µM

SMILES: CCOC(=O)N[C@H]1C[C@H](NC(=O)O[C@@H]2CCN(c3cn[nH]c(=O)c3Cl)C2)C1 [P-0169, (R)-1-(5-chloro-6-oxo-1,6-dihydropyridazin-4-yl)pyrrolidin-3-yl ethyl ((1R,3r)-cyclobutane-1,3-diyl)dicarbamate]
- IC50 [1]: 0.001 to 10 µM
- IC50 [2]: 0.001 to 10 µM

SMILES: O=C(N[C@H]1CC[C@H](C(=O)O)CC1)O[C@@H]1CCN(c2cn[nH]c(=O)c2Cl)C1 [P-0190, (1R,4r)-4-(((((R)-1-(5-chloro-6-oxo-1,6-dihydropyridazin-4-yl)pyrrolidin-3-yl)oxy)carbonyl)amino) cyclohexane-1-carboxylic acid]
- IC50 [1]: 0.001 to 10 µM
- IC50 [2]: 10 to 100 µM

SMILES: O=C(NC1CC2CC2C1)O[C@@H]1CCN(c2cnn(CCO)c(=O)c2Cl)C1 (stereo partly drawn) [P-0449, (R)-1-(5-chloro-1-(2-hydroxyethyl)-6-oxo-1,6-dihydropyridazin-4-yl)pyrrolidin-3-yl bicyclo[3.1.0]hexan-3-ylcarbamate]
- IC50 [1]: 0.001 to 10 µM
- IC50 [2]: 0.001 to 10 µM

SMILES: O=C(NC1CCC(F)(F)C1)O[C@@H]1CCN(c2cn[nH]c(=O)c2Cl)C1 (stereo partly drawn) [P-0112, (R)-1-(5-chloro-6-oxo-1,6-dihydropyridazin-4-yl)pyrrolidin-3-yl (3,3-difluorocyclopentyl)carbamate]
- IC50 [1]: 0.001 to 10 µM
- IC50 [2]: 0.001 to 10 µM

SMILES: CC1(NS(C)(=O)=O)CCC(NC(=O)O[C@@H]2CCN(c3cn[nH]c(=O)c3Cl)C2)CC1 (stereo partly drawn) [P-0358, (R)-1-(5-chloro-6-oxo-1,6-dihydropyridazin-4-yl)pyrrolidin-3-yl (4-methyl-4-(methylsulfonamido)cyclohexyl)carbamate]
- IC50 [1]: 0.001 to 10 µM
- IC50 [2]: 0.001 to 10 µM

SMILES: O=C(N[C@H]1CC[C@H](NS(=O)(=O)c2ccc(C(F)(F)F)cc2)CC1)O[C@@H]1CCN(c2cn[nH]c(=O)c2Cl)C1 [P-0254, (R)-1-(5-chloro-6-oxo-1,6-dihydropyridazin-4-yl)pyrrolidin-3-yl ((1r,4R)-4-((4-(trifluoromethyl)phenyl)sulfonamido)cyclohexyl)carbamate]
- IC50 [1]: 0.001 to 10 µM
- IC50 [2]: 0.001 to 10 µM

SMILES: Cc1ccc(C(=O)N[C@H]2CC[C@H](NC(=O)O[C@@H]3CCN(c4cn[nH]c(=O)c4Cl)C3)CC2)cc1 [P-0344, (R)-1-(5-chloro-6-oxo-1,6-dihydropyridazin-4-yl)pyrrolidin-3-yl ((1r,4R)-4-(4-methylbenzamido)cyclohexyl) carbamate]
- IC50 [1]: 0.001 to 10 µM
- IC50 [2]: 0.001 to 10 µM

SMILES: CC1(NC(=O)O[C@@H]2CCN(c3cnn(CCO)c(=O)c3Cl)C2)CCCC1 [P-0452, (R)-1-(5-chloro-1-(2-hydroxyethyl)-6-oxo-1,6-dihydropyridazin-4-yl)pyrrolidin-3-yl (1-methylcyclopentyl)carbamate]
- IC50 [1]: 0.001 to 10 µM
- IC50 [2]: 0.001 to 10 µM

SMILES: Cc1cccc(C(=O)N[C@H]2CC[C@H](NC(=O)O[C@@H]3CCN(c4cn[nH]c(=O)c4Cl)C3)CC2)c1 [P-0317, (R)-1-(5-chloro-6-oxo-1,6-dihydropyridazin-4-yl)pyrrolidin-3-yl ((1r,4R)-4-(3-methylbenzamido)cyclohexyl) carbamate]
- IC50 [1]: 0.001 to 10 µM
- IC50 [2]: 0.001 to 10 µM

SMILES: O=C(N[C@H]1CC[C@H](NS(=O)(=O)c2c[nH]cn2)CC1)O[C@@H]1CCN(c2cn[nH]c(=O)c2Cl)C1 [P-0309, (R)-1-(5-chloro-6-oxo-1,6-dihydropyridazin-4-yl)pyrrolidin-3-yl ((1r,4R)-4-(1H-imidazole-4-sulfonamido)cyclohexyl) carbamate]
- IC50 [1]: 0.001 to 10 µM
- IC50 [2]: 0.001 to 10 µM

SMILES: O=C(NC1CCN(C(=O)Nc2cccc(OC(F)F)c2)CC1)O[C@@H]1CCN(c2cn[nH]c(=O)c2Cl)C1 [P-0493, (R)-1-(5-chloro-6-oxo-1,6-dihydropyridazin-4-yl)pyrrolidin-3-yl (1-((3-(difluoromethoxy)phenyl)carbamoyl)piperidin-4-yl) carbamate]
- IC50 [1]: 0.001 to 10 µM
- IC50 [2]: 0.001 to 10 µM

SMILES: CC(=O)N1CCC(NC(=O)O[C@@H]2CCN(c3cn[nH]c(=O)c3Cl)C2)CC1 [P-0090, (R)-1-(5-chloro-6-oxo-1,6-dihydropyridazin-4-yl)pyrrolidin-3-yl (1-acetylpiperidin-4-yl)carbamate]
- IC50 [1]: 0.001 to 10 µM
- IC50 [2]: 0.001 to 10 µM

SMILES: CS(=O)(=O)N1CCC(NC(=O)O[C@@H]2CCN(c3cn[nH]c(=O)c3Cl)C2)CC1 [P-0150, (R)-1-(5-chloro-6-oxo-1,6-dihydropyridazin-4-yl)pyrrolidin-3-yl (1-(methylsulfonyl)piperidin-4-yl)carbamate]
- IC50 [1]: 0.001 to 10 µM
- IC50 [2]: 0.001 to 10 µM

SMILES: Cc1nc(NC(=O)O[C@@H]2CCN(c3cn[nH]c(=O)c3Cl)C2)sc1C [P-0221, (R)-1-(5-chloro-6-oxo-1,6-dihydropyridazin-4-yl)pyrrolidin-3-yl (4,5-dimethylthiazol-2-yl)carbamate]
- IC50 [1]: 10 to 100 µM
- IC50 [2]: 10 to 100 µM

SMILES: O=C(N[C@@H]1CCCC(F)(F)C1)O[C@@H]1CCN(c2cnn(CCO)c(=O)c2Cl)C1 [P-0513, (R)-1-(5-chloro-1-(2-hydroxyethyl)-6-oxo-1,6-dihydropyridazin-4-yl)pyrrolidin-3-yl ((R)-3,3-difluorocyclohexyl)carbamate]
- IC50 [1]: 0.001 to 10 µM
- IC50 [2]: 0.001 to 10 µM

SMILES: N[C@H]1C[C@H](NC(=O)O[C@@H]2CCN(c3cn[nH]c(=O)c3Cl)C2)C1 [P-0167, (R)-1-(5-chloro-6-oxo-1,6-dihydropyridazin-4-yl)pyrrolidin-3-yl ((1r,3R)-3-aminocyclobutyl)carbamate]
- IC50 [1]: 0.001 to 10 µM
- IC50 [2]: 0.001 to 10 µM

SMILES: Cc1c(N2CC[C@@H](NC(=O)NC3CCCC3)C2)cn[nH]c1=O [P-0057, (R)-1-cyclopentyl-3-(1-(5-methyl-6-oxo-1,6-dihydropyridazin-4-yl)pyrrolidin-3-yl)urea]
- IC50 [1]: 0.001 to 10 µM
- IC50 [2]: 10 to 100 µM

SMILES: O=C(N[C@H]1CC[C@H](O)CC1)O[C@@H]1CCN(c2cn[nH]c(=O)c2Cl)C1 [P-0131, (R)-1-(5-chloro-6-oxo-1,6-dihydropyridazin-4-yl)pyrrolidin-3-yl ((1r,4R)-4-hydroxycyclohexyl)carbamate]
- IC50 [1]: 0.001 to 10 µM
- IC50 [2]: 0.001 to 10 µM
